From patent US5057324A, “Kallikrein inhibitor substance, a process for preparation and pharmaceutical compositions thereof” (priority 1987, dated 1991)

Tested on: formation of kallikrein
Assay: Inhibitory action against the formation of kallikrein (kaolin-activated human plasma, synthetic substrate)
Type: biochemical
Settings: human plasma diluted with saline, kaolin activation, substrate D-Pro-Phe-Arg-p-nitroaniline
Description: Kallikrein is a group of proteinase widely distributed in the plasma and tissues of various kinds of animals. […] The inhibitory action of the substance of the present invention against the formation of kallikrein was assayed according to the method described in Example 1 of European Patent Publication No.0259857. That is, in the primary reaction, kaolin suspension was added to the human plasma diluted with physiological saline. After a certain while, Lima Bean trypsin inhibitor was added to terminate the activation of kallikrein. In the second reaction, the amount of kallikrein formed in the primary reaction was measured by the use of a synthetic substrate specific to kallikrein, such as D-Pro-Phe-Arg-p-nitroaniline. In the above reaction system, the activity of the test substance to inhibit the formation of kallikrein was measured by mixing the test substance with the human plasma prior to addition of kaolin suspension.

SMILES: CC(C(=O)O)c1cccc(C(=O)c2ccccc2)c1 (stereo not shown) [Ketoprofen]
- IC50 = Concentration 50% inhibiting the formation of kallikrein: 700 µg/mL
